Reference: patent US11571437B2, “Methods of treating cancer using PRMT5 inhibitors” (Janssen Pharmaceutica NV, priority 2019, dated 2023)

How the values were obtained:
[1] = Phase 1 open-label study Part 1: plasma pharmacokinetics; assay type: in vivo; details: human plasma, oral capsules
Protocol: (§1) Two provisional RP2Ds were selected: 1.5 mg intermittently and 1 mg QD.
The pharmacokinetic run-in phase will evaluate the single-dose pharmacokinetics of JNJ 64619178 prior to subsequent daily dose administration in the treatment phase. Subjects will be administered a single-dose of study drug at the site on Day 1 and remain at site for at least 6 hours for pharmacokinetic assessments. The single-dose of study drug will be followed by a 6 day rest period (i.e., Days 2 to 7 [a range of 5 to 10 days is allowed]) during which pharmacokinetic blood sample and ECG collection will be conducted. Certain subjects in Part 1 may not participate in the pharmacokinetic run-in phase.
The treatment phase begins on Cycle 1 Day 1 with the administration of the study drug and continues until the completion of the end-of-treatment visit. During the treatment phase, multiple-dose pharmacokinetics of JNJ-64619178 will be evaluated. On Cycle 1 Day 14, subjects in Part 1 will remain at site for at least 8 hours after the study drug administration for pharmacokinetic and ECG assessments. Study drug should be administered at approximately the same time each day for accurate evaluation of the pharmacokinetics of JNJ 64619178.

[2] = test system: NCI-H1048 human xenograft model of SCLC; test: NCI-H1048 human SCLC xenograft, once daily oral dosing up to 28 days (Study 1); assay type: in vivo, mice
Protocol: JNJ-64619178 was tested for antitumor activity in the NCI-H1048 human xenograft model of SCLC. Male mice were subcutaneously implanted with NCI-H1048 cells, and tumors were allowed to grow for 14 days, reaching 174±51 mm^3 in volume, when treatment was started. Mice were administered once daily oral doses of JNJ-64619178 at 1, 3, and 10 mg/kg or 20% hydroxypropyl-β-cyclodextrin (HP-β-CD) vehicle control for up to 28 days.
FIG. 1 details the individual tumor regrowth observed following cessation of once daily treatment with 10 mg/kg JNJ 64619178 or vehicle control. In all 8 mice treated with 10 mg/kg JNJ 64619178, tumor regrowth began approximately 14 days after cessation of dosing, with tumors reaching ethical limits by Day 92 postimplantation.

[3] = test system: NCI H1048 human SCLC xenografts; test: second NCI-H1048 human SCLC mouse xenograft study, 10 days dosing and 10 days regrowth observation; assay type: in vivo, mice; details: 10 mg/kg oral gavage for 10 days
PRMT5/MEP50 complex = PRMT5/MEP50 complex (Homo sapiens, UniProt O14744); test: in vitro thermal shift experiments; assay type: binding
Sequence of PRMT5/MEP50 complex (O14744 whole entry): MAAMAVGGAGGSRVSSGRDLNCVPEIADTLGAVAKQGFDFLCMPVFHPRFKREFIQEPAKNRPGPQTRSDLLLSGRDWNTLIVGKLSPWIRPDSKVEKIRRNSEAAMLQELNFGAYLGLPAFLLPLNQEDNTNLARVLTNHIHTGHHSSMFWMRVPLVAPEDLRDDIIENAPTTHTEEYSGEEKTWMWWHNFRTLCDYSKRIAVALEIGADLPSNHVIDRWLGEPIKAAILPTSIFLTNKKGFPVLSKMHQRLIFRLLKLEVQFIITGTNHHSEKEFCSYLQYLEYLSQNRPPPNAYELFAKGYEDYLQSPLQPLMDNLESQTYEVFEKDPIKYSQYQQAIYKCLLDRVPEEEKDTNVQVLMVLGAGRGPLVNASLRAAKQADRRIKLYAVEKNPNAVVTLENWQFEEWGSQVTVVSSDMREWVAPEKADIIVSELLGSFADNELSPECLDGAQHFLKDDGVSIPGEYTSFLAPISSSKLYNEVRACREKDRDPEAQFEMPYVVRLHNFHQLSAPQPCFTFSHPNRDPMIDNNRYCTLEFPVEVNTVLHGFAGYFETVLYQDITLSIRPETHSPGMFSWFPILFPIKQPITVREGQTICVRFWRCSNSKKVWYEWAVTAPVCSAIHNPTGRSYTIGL
Sequence of PRMT5/MEP50 complex (Q9BQA1 whole entry partner): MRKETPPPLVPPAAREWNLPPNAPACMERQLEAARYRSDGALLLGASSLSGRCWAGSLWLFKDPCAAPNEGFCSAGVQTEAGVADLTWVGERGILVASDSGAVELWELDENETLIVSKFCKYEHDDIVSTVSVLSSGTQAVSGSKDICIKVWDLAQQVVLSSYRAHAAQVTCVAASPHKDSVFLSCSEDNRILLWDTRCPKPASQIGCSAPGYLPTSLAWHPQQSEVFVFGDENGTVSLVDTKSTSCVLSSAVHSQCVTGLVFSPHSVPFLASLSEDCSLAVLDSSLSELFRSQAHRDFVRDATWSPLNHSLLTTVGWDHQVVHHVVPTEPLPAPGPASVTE
Source text: (§2) This unique mode-of-binding translates into very potent and time-dependent PRMT5 enzyme inhibition.

[4] = Phase 1 open-label study Part 1: safety and tolerability; assay type: in vivo, human
Source text: (§3) This is a multi-part, Phase 1, open-label, multicenter study to evaluate the safety, pharmacokinetics, pharmacodynamics, and preliminary clinical activity of JNJ-64619178 monotherapy administered either to adult human subjects with advanced solid tumors or B cell non-Hodgkin lymphomas who previously received or are ineligible for standard treatment options, or to adult subjects with lower risk myelodysplastic syndromes (MDS) who are red blood cell (RBC) transfusion-dependent and relapsed or refractory to erythropoiesis-stimulating agent (ESA) treatment.
Fifteen (15) participants with various solid tumors (e.g., breast cancer, prostate cancer, salivary duct carcinoma, adenoid cystic carcinoma) were dosed in the “Part 1” study described below with JNJ-64619178 at 0.5 mg (1′ cohort), 1 mg (2nd cohort), 2 mg (3rd cohort) and 4 mg (4th cohort) under a schedule of 14 days continuous dose administration followed by a 7-day rest period (14 days on/7 days off in a 21-day cycle). Average treatment duration ranged from 4 weeks in the 4th cohort (4 mg 14 days on/7 days off) to 6 months in the 2nd cohort (1 mg 14 days on/7 days off). […] The Part 1 study is ongoing.
(§4) Fifty-four (54) participants with various solid tumors (e.g., breast cancer, prostate cancer, salivary duct carcinoma, adenoid cystic carcinoma, and uveal melanoma) were dosed in the “Part 1” study described below with JNJ-64619178 at 0.5 mg (1st cohort), 1 mg (2nd cohort), 2 mg (3rd cohort), 4 mg (4th cohort), and 3 mg (5th cohort) under a schedule of 14 days continuous dose administration followed by a 7-day rest period (14 days on/7 days off in a 21-day cycle); or at 1 mg (6th cohort) or 2 mg (7th cohort) under a schedule of 21 days continuous dosing. Average treatment duration was 3 months, with a range of 0.4 to 22.4 months. […] The maximum tolerated dose was considered 3 mg on the 14 days on/7 days off schedule or 2 mg on the continuous dosing schedule. […] The participant with confirmed PR was from cohort 2.
The JNJ-64619178 starting dose is based on toxicology results obtained using no observed adverse effect level (NOAEL) dose, more conservative than the highest non-severely toxic dose (HNSTD) in the dog as the most sensitive species. Using a default safety factor of 6 (used for HNSTD in non-rodents), a starting dose of 0.54 mg once daily (QD) was obtained, which was rounded to 0.5 mg QD. A single dose of the study drug will be administered in the pharmacokinetic run-in phase for Part 1. During the treatment phase, the study drug will be administered for 14 consecutive days followed by 7 days of rest (14 days on/7 days off dose administration) on a 21 day cycle. Alternative dosing schedules (e.g., continuous dosing, 7 days on/7 days off, and 7 days on/14 days off) are also evaluated.
The study was initiated with dose Schedule A (14 days on/7 days off dose administration on a 21-day cycle). Table B below provides an example of possible dose escalation.

PRMT5/MEP50 = PRMT5/MEP50 (Homo sapiens, UniProt O14744); test: surface plasmon resonance binding studies
Sequence of PRMT5/MEP50 (O14744 whole entry): as the sequence (O14744 whole entry) above
Sequence of PRMT5/MEP50 (Q9BQA1 whole entry partner): as the sequence (Q9BQA1 whole entry partner) above
Source text: as §2

plasma SDMA = test: Phase 1 open-label study Part 1: target engagement by plasma SDMA; assay type: in vivo, human; details: even with intermittent dosing
Protocol: as §1

various solid tumors = test: Phase 1 open-label study Part 1: preliminary clinical activity (RECIST); assay type: in vivo, human
Source text: as §3, §4, §1

NCI-H1048 xenografts = test: NCI-H1048 xenograft, continuous versus 7+/7- dosing (Study 3); assay type: in vivo, mice; details: 10 mg/kg once daily oral, at day 28
Protocol: FIG. 4 is a line graph showing extended tumor growth inhibition using a dosing cessation of the compound of the disclosure in the NCI-H1048 tumor model at a JNJ64619178 dosage of 10 mg/kg for either 28 consecutive days or for two cycles of 7 daily drug treatment followed by 7 days dosing holidays (7+/7 −, 2 cycles).
In all xenografts studies, the average tumor volume at treatment initiation was about 150 mm^3 and mean tumor volumes (mm^3)±SEM of each group were graphed over time as indicated in FIG. 4.

## Nc1nc2cc(CC[C@H]3C[C@@H](n4ccc5c(N)ncnc54)[C@H](O)[C@@H]3O)ccc2cc1Br [JNJ-64619178, (1S,2R,3S,5R)-3-(2-(2-amino-3-bromoquinolin-7-yl)ethyl)-5-(4-amino-7H-pyrrolo[2,3-d]pyrimidin-7-yl)cyclopentane-1,2-diol]
[1]
  plasma Cmax and AUC dose dependence: linearly dose-proportional
[2]; 10 mg/kg once daily oral
  time complete regression was maintained postdose: up to 14 days
  tumor regression: complete regression of tumors
[2]; 10 mg/kg once daily oral, Day 42 postimplantation, vs vehicle control
  tumor growth inhibition (TGI): 99.1%
[2]; 10 mg/kg once daily, all 8 mice
  start of tumor regrowth after cessation of dosing: approximately 14 days
[2]; 1, 3, and 10 mg/kg once daily oral
  antitumor activity (statistical significance) compared with vehicle control: statistically significant antitumor activity
[2]; 3 and 10 mg/kg once daily oral
  antitumor activity (biological significance): biologically significant antitumor activity
[3]
  tumor growth inhibition (TGI): up to 72.9%
PRMT5/MEP50 complex
  additional stabilization of the PRMT5/MEP50 complex in comparison to SAM binding: 12 degrees Celsius
[4]; 14 days on/7 days off schedule
  maximum tolerated dose: 3 mg
[4]; continuous dosing schedule
  maximum tolerated dose: 2 mg
[4]; human, in vivo
  dose-limiting toxicities: thrombocytopenia of Grade 4 or of Grade 3 lasting longer than 7 days
  grade of non-hematologic toxicities: Grade 1 or 2 except for one case of Grade 3 vomiting lasting 24 hours
[4]; in vivo
  adverse events observed in >20% of participants: gastrointestinal disorders (nausea, vomiting, diarrhea), hematologic disorders (thrombocytopenia, anemia, neutropenia), general disorders (fatigue and asthenia) and dysgeusia
  dose limiting toxicities (DLTs): No dose limiting toxicities (DLTs) were observed
  most frequently reported adverse events: hematologic, gastrointestinal and dermatologic
PRMT5/MEP50
  binding kinetics: slow off-rate binding kinetics
Plasma SDMA
  target engagement as measured by plasma SDMA: Robust target engagement
Various solid tumors; 1 of 45 participants evaluable for efficacy, from cohort 2
  best overall response: confirmed partial response: 4.3%
Various solid tumors; 20 of 45 participants evaluable for efficacy
  best overall response: progressive disease: 43%
Various solid tumors; 24 of 45 participants evaluable for efficacy
  best overall response: stable disease: 52%
Various solid tumors; adenoid cystic carcinoma
  response (RECIST) in ACC: confirmed partial response
Various solid tumors; patients with ACC, prostate cancer, salivary gland carcinomas, and other tumor types
  duration of stable disease: greater than 6 months
NCI-H1048 xenografts; 28 consecutive days
  tumor growth inhibition (TGI) compared to vehicle: 62%
NCI-H1048 xenografts; two cycles of 7 days on/7 days off (7+/7-)
  tumor growth inhibition (TGI) compared to vehicle: 63%
